Assay: xn = mol fraction of the nth substance listed
Conditions: 101 kPa

CCCCCCCC[n+]1ccc2ccccc2c1.O=S(=O)([N-]S(=O)(=O)C(F)(F)F)C(F)(F)F + CCCCO
viscosity [mPa·s]
Conditions	x2 = 0	x2 = 0.0865	x2 = 0.1708	x2 = 0.3134	x2 = 0.4036	x2 = 0.5032	x2 = 0.6067	x2 = 0.6915	x2 = 0.7937	x2 = 0.9314
298.15 K	369	276	205	–	84.3	–	33.87	22.84	12.59	6.1
308.15 K	191	151.2	115.2	–	51.64	34.34	21.89	–	8.77	4.39
318.15 K	108.7	89.2	69.5	44.66	32.98	22.81	15.04	10.61	–	3.32
328.15 K	67.9	56.1	–	29.85	22.59	16.01	10.88	7.77	4.72	2.58
338.15 K	44.88	37.87	31.27	–	16.68	11.78	8.15	–	–	2.06

CCCCCCO + CCCCCCCC[n+]1ccc2ccccc2c1.O=S(=O)([N-]S(=O)(=O)C(F)(F)F)C(F)(F)F
x1 = 1
Conditions	viscosity [mPa·s]
298.15 K	4.48
308.15 K	3.34
318.15 K	2.54
338.15 K	1.56

CCCCO + CCCCCCCC[n+]1ccc2ccccc2c1.O=S(=O)([N-]S(=O)(=O)C(F)(F)F)C(F)(F)F
x1 = 1
Conditions	viscosity [mPa·s]
298.15 K	2.54
308.15 K	1.98
318.15 K	1.57
328.15 K	1.26
338.15 K	1.03

CCCCCCCC[n+]1ccc2ccccc2c1.O=S(=O)([N-]S(=O)(=O)C(F)(F)F)C(F)(F)F + CCCCCCO
viscosity [mPa·s]
Conditions	x2 = 0	x2 = 0.0854	x2 = 0.2857	x2 = 0.3673	x2 = 0.4981	x2 = 0.5825	x2 = 0.6854	x2 = 0.7913
298.15 K	369	287.4	136.9	95.1	58.56	42.65	28.18	17.78
308.15 K	191	153.3	78.6	56.09	35.72	26.62	18.08	11.64
318.15 K	108.7	89.2	–	35.66	23.49	17.79	12.37	8.11
328.15 K	67.9	56.19	32.57	24.14	16.33	12.59	8.87	5.88
338.15 K	44.8	37.54	22.77	17.2	11.88	9.24	–	4.44

CCCCCCCC[n+]1ccc2ccccc2c1.O=S(=O)([N-]S(=O)(=O)C(F)(F)F)C(F)(F)F + OCCc1ccccc1
viscosity [mPa·s]
Conditions	x2 = 0	x2 = 0.0851	x2 = 0.1985	x2 = 0.3101	x2 = 0.3748	x2 = 0.4969	x2 = 0.5766	x2 = 0.695	x2 = 0.8076	x2 = 0.8956
298.15 K	369	305	219	153.5	126.8	79.7	–	40.23	26.6	–
308.15 K	191	161.9	119.7	86.7	72.7	47.31	36.67	–	16.96	12.09
318.15 K	108.7	93.8	–	53.23	–	30.33	–	16.64	11.53	8.35
328.15 K	67.9	–	45.88	35.03	–	20.59	–	–	8.23	5.99
338.15 K	44.8	–	31.17	24.37	–	14.79	12.01	–	6.09	4.45

OCCc1ccccc1 + CCCCCCCC[n+]1ccc2ccccc2c1.O=S(=O)([N-]S(=O)(=O)C(F)(F)F)C(F)(F)F
x1 = 1
Conditions	viscosity [mPa·s]
298.15 K	10.9
308.15 K	7.19
318.15 K	4.98
328.15 K	3.64
338.15 K	2.77

From a compilation of properties of binary mixtures (doi:10.1016/j.jct.2011.12.003)
